# From patent US9102899B2, “Organic compounds” (Givaudan SA, priority 2004, dated 2015)
# Experiments:
# [1] = Odour threshold by gas chromatograph with sniff port, panel of trained individuals; conditions: GC sniff port; absolute amount of compound delivered at the sniff port; same panel, couples evaluated on the same day
# Experimental: According to standard procedures known to the person skilled in the art, threshold values for volatile perfumery compounds were determined on a gas chromatograph equipped with a sniff port by a panel of trained individuals. The last concentration smelled by each individual was recorded as the individual threshold value expressed in ng (absolute amount of compound delivered at the sniff port). All compounds have been evaluated by the same panel. The couples (saturated and unsaturated compound) were evaluated on the same day.
melting point [°C],Compound,Odour threshold [1] [ng]
,"CCC(C)=C(C#N)c1ccccc1 (racemic) [Example 3, 3-Methyl-2-phenyl-pent-2-ene nitrile]",3
,"CCCCCC=C(C#N)c1ccccc1 (stereo in doubt) [Example 2, (2E)-2-Phenyl-oct-2-ene nitrile]",2
,"CCCCCCC(C#N)c1ccccc1 (centres unmarked) [Comparison Example 2A, reference compound]",15
,"CCC(C)C(C#N)c1ccccc1 (centres unmarked) [Comparison Example 3A, reference compound]",26
66 to 67,"CC(C)=C/C=C(/C#N)c1ccccc1 [Example 6, (2E)-5-Methyl-2-phenyl-hexa-2,4-diene nitrile]",
